In US10188634B2, “3-(3H-imidazo[4,5-C]pyridin-2-yl)-1 H-pyrazolo[4,3-B]pyridines and therapeutic uses thereof” (Samumed, LLC, priority 2015, dated 2019):

Experiments:
Format in all cases: cell-based
[1] = test system: LL29 cells (primary human fibroblasts derived from IPF patients) treated with TGF-β1, α-smooth muscle actin; assay: Inhibition of the fibrotic process: αSMA staining in TGF-β1 treated primary human fibroblasts from IPF patients (LL29 cells); settings: Fibroblast, 96 h; for EC50: LL29 cells treated with TGF-β1 (20 ng/mL), 4 days; for inhibition at 10 µM: LL29 cells treated with TGF-β1, 4 days, read-out: percent inhibition in brackets (given for EC50 >10 μM)
From the text: Representative compounds were screened using primary human fibroblasts (derived from IPF patients) treated with TGF-β1 to determine their ability to inhibit the fibrotic process.
Human Fibroblast Cell Culture: Primary human fibroblasts derived from IPF patients (LL29 cells) [^1Xiaoqiu Liu, et.al., “Fibrotic Lung Fibroblasts Show Blunted Inhibition by cAMP Due to Deficient cAMP Response Element-Binding Protein Phosphorylation”, Journal of Pharmacology and Experimental Therapeutics (2005), 315(2), 678-687; ^2Watts, K. L., et.al., “RhoA signaling modulates cyclin D1 expression in human lung fibroblasts; implications for idiopathic pulmonary fibrosis”, Respiratory Research (2006), 7(1), 88] were obtained from American Type Culture Collection (ATCC) and expanded in F12 medium supplemented with 15% Fetal Bovine Serum and Penicillin/Streptomycin.
Compound Screening: Each compound was dissolved in DMSO as a 10 mM stock and used to prepare compound source plates. […] LL29 cells are plated at 1,500 cells/well in 80 μL/well F12 medium supplemented with 1% Fetal Bovine Serum. One hour after addition of the cells, TGF-β1 (Peprotech; 20 ng/mL) was added to the plates to induce fibrosis (ref. 1 and 2 above). Wells treated with TGF-β1 and containing DMSO were used as controls. Cells were incubated at 37° C. and 5% CO2 for 4 days. Following incubation for 4 days, SYTOX green nucleic acid stain (Life Technologies [Thermo Fisher Scientific]) was added to the wells at a final concentration of 1 μM and incubated at room temperature for 30 min. Cells were then fixed using 4% formaldehyde (Electron Microscopy Sciences), washed 3 times with PBS followed by blocking and permeabilization using 3% Bovine Serum Albumin (BSA; Sigma) and 0.3% Triton X-100 (Sigma) in PBS. Cells were then stained with antibody specific to α-smooth muscle actin (αSMA; Abcam) (ref. 1 and 2 above) in 3% Bovine Serum Albumin (BSA; Sigma) and 0.3% Triton X-100 (Sigma) in PBS, and incubated overnight at 4° C. Cells were then washed 3 times with PBS, followed by incubation with Alexa Flor-647 conjugated secondary antibody (Life Technologies [Thermo Fisher Scientific]) and DAPI at room temperature for 1 hour. Cells were then washed 3 times with PBS and plates were sealed for imaging. αSMA staining was imaged by excitation at 630 nm and emission at 665 nm and quantified using the Compartmental Analysis program on the CellInsight CX5 (Thermo Scientific). Dead or apoptotic cells were excluded from analysis based on positive SYTOX green staining. % of total cells positive for αSMA were counted in each well and normalized to the average of 11 wells treated with TGF-β1 on the same plate using Dotmatics' Studies Software. The normalized averages (fold change over untreated) of 3 replicate wells for each compound concentration were used to create dose-responses curves and EC50 values were calculated using non-linear regression curve fit in the Dotmatics' Studies Software. For EC50 of >10 μM, the percent inhibition at 10 μM is provided.

IL-6 in THP-1 cells = assay: Inhibition of IL-6 in LPS-stimulated THP-1 human monocyte cells (HTRF); settings: IL-6 HTRF; for EC50: 500 ng/mL LPS, 22 hours; for inhibition at 10 µM: LPS, read-out: percent inhibition in brackets (given for EC50 >10 μM)
Description: Human Monocyte Cell Culture: Human monocyte cell line (THP-1 cells; Catalog # TIB-202, ATCC, Manassas, Va.) were cultured in Roswell Park Memorial Institute (RPMI) 1640 Medium (Catalog #21870-100, Buffalo, N.Y.) with 1% L-glutamine, 1% HEPES, 1% Sodium Pyruvate, 2% Sodium Bicarbonate supplemented with 100 units/mL penicillin, 50 μg/mL streptomycin, 2-mercaptoethanol (0.05 mM) [basal medium] and 10% fetal bovine serum (Catalog #16140089, Life Technologies, Carlsbad, Calif.) at 37° C. and 5% CO2.
Compound Screening: THP-1 cells were cultured in basal media with 1% FBS for 24 hours before the start of the assay. Each compound was dissolved in DMSO as a 10 mM stock and used to prepare compound source plates. Serial dilution (1:3, 10-point dose-response curves starting from 10 μM) and compound transfer was performed using the ECHO 550 (Labcyte, Sunnyvale, Calif.) into 384-well white low volume assay plates (Greiner Bio-One) with appropriate DMSO backfill for a final DMSO concentration of 0.1%. THP-1 cells were plated at 5000 cells/well in the 384-well plates and incubated at 37° C. for 2 h. 500 ng/mL of LPS was added after 2 hours and cells were incubated for another 22 hours at 37° C. Plates were spun in a centrifuge for 1 minute at […] and a mixture of anti-IL6 XL665, and anti-IL6 Cryptate diluted in reconstitution buffer (Cisbio Inc.) was added to each well. Following incubation for 3 hrs at room temperature, Homogeneous Time-Resolved Fluorescence (HTRF) was measured using the Envision (Perkin Elmer) at 665 nm and […]. The ratio of fluorescence at 665 nm to 620 nm was used as a readout for IL6 quantification. All samples were processed in duplicate. Readings were normalized to DMSO treated cells and normalized activities were utilized for EC50 calculations using the dose-response log (inhibitor) vs. response -variable slope (four parameters) nonlinear regression feature available in GraphPad Prism 5.0 (or Dotmatics). For EC50 of >10 μM, the percent inhibition at 10 μM is provided.

SW480 colon cancer cells = assay: Cell viability assay (CellTiter-Blue) in SW480 colon cancer cells; settings: Homo sapiens, 96 h; for inhibition at 10 µM: four days, CellTiter-Blue, read-out: percent inhibition at 10 μM (given for EC50 of >10 μM); for EC50: four days incubation, CellTiter-Blue cell viability
Description: Representative compounds were screened using the following assay procedure to assess the effect on cell viability as described below.
Each compound was dissolved in DMSO as a 10 mM stock and used to prepare compound source plates. Serial dilution (1:3, 8-point dose-response curves from 10 μM to 0.004 μM) and compound transfer was performed using the ECHO 550 (Labcyte, Sunnyvale, Calif.) into 96-well clear bottom, black-walled plates (Corning-Costar).
Approximately 2×10^3 SW480 colon cancer cells were seeded into each well and allowed to incubate in the presence or absence of compound for four days at 37° C./5% CO2. Eight replicates of DMSO-treated cells served as controls and cells treated with compound were performed in duplicate.
After incubation, 20 μL of CellTiter-Blue (Promega) was added to each well allowed to incubate for approximately 3 hours. This reagent was a buffered solution which contains resazurin, metabolically active cells were able to reduce rezarurin (blue) into resorufin (pink) which was highly fluorescent. This measured fluorescence was used as a readout for cell viability.
After incubation, the plates were read at Ex 560 nm Em 590 nm (Cytation 3, BioTek). Dose-response curves were generated and EC50 concentration values were calculated using non-linear regression curve fit in the GraphPad Prism (San Diego, Calif.) or Dotmatics' Studies Software (Bishops Stortford, UK). For EC50 of >10 μM, the percent inhibition at 10 μM is provided.

SMILES	EC50 (IL-6 in THP-1 cells) [µM]	EC50 (SW480 colon cancer cells) [µM]	EC50 [1] [µM]	inhibition at 10 µM [1] [%]	inhibition at 10 µM (IL-6 in THP-1 cells) [%]	inhibition at 10 µM (SW480 colon cancer cells) [%]
CCC(=O)Nc1cncc(-c2ccc3[nH]nc(-c4nc5c(-c6cccc(F)c6)cncc5[nH]4)c3n2)c1 [Compound 1, N-(5-(3-(7-(3-Fluorophenyl)-3H-imidazo[4,5-c]pyridin-2-yl)-1H-pyrazolo[4,3-b]pyridin-5-yl)pyridin-3-yl)propionamide]	> 10	> 10	> 10	0	25.8	0
CC(C)CC(=O)Nc1cncc(-c2ccc3[nH]nc(-c4nc5c(-c6cccc(F)c6)cncc5[nH]4)c3n2)c1 [Compound 2, N-(5-(3-(7-(3-Fluorophenyl)-3H-imidazo[4,5-c]pyridin-2-yl)-1H-pyrazolo[4,3-b]pyridin-5-yl)pyridin-3-yl)-3-methylbutanamide]	> 10	> 10	4.09	–	25.4	0
Fc1cccc(-c2cncc3[nH]c(-c4n[nH]c5ccc(-c6ccncc6)nc45)nc23)c1 [Compound 18, 3-(7-(3-Fluorophenyl)-3H-imidazo[4,5-c]pyridin-2-yl)-5-(pyridin-4-yl)-1H-pyrazolo[4,3-b]pyridine]	> 10	> 10	> 10	0	8.6	6.5
O=C(Nc1cncc(-c2ccc3[nH]nc(-c4nc5c(-c6ccc(F)cc6)cncc5[nH]4)c3n2)c1)C1CCC1 [Compound 49, N-(5-(3-(7-(4-Fluorophenyl)-3H-imidazo[4,5-c]pyridin-2-yl)-1H-pyrazolo[4,3-b]pyridin-5-yl)pyridin-3-yl)cyclobutanecarboxamide]	> 10	8.68	3.23	–	37.7	–
Fc1ccc(-c2cncc3[nH]c(-c4n[nH]c5ccc(-c6cncnc6)nc45)nc23)cc1 [Compound 55, 3-(7-(4-Fluorophenyl)-3H-imidazo[4,5-c]pyridin-2-yl)-5-(pyrimidin-5-yl)-1H-pyrazolo[4,3-b]pyridine]	> 10	> 10	> 10	21.4	13.4	0
CC(C)C(=O)Nc1cncc(-c2ccc3[nH]nc(-c4nc5c(-c6cccnc6)cncc5[nH]4)c3n2)c1 [Compound 93, N-(5-(3-(7-(Pyridin-3-yl)-3H-imidazo[4,5-c]pyridin-2-yl)-1H-pyrazolo[4,3-b]pyridin-5-yl)pyridin-3-yl)isobutyramide]	> 10	> 10	> 10	12.2	18	6.3
c1ccc(CNCc2cncc(-c3ccc4[nH]nc(-c5nc6c(-c7cccnc7)cncc6[nH]5)c4n3)c2)cc1 [Compound 108, N-Benzyl-1-(5-(3-(7-(pyridin-3-yl)-3H-imidazo[4,5-c]pyridin-2-yl)-1H-pyrazolo[4,3-b]pyridin-5-yl)pyridin-3-yl)methanamine]	0.03	> 10	> 10	0	–	0

Second part, led by results:

EC50 (IL-6 in THP-1 cells) [µM]	EC50 (SW480 colon cancer cells) [µM]	SMILES	EC50 [1] [µM]	inhibition at 10 µM [1] [%]	inhibition at 10 µM (IL-6 in THP-1 cells) [%]	inhibition at 10 µM (SW480 colon cancer cells) [%]
0.094	> 10	Nc1cncc(-c2ccc3[nH]nc(-c4nc5c(-c6ccccc6F)cncc5[nH]4)c3n2)c1 [Compound 59, 5-(3-(7-(2-Fluorophenyl)-3H-imidazo[4,5-c]pyridin-2-yl)-1H-pyrazolo[4,3-b]pyridin-5-yl)pyridin-3-amine]	3.4	–	–	0
> 10	> 10	CC(C)C(=O)Nc1cncc(-c2ccc3[nH]nc(-c4nc5c(-c6ccccc6F)cncc5[nH]4)c3n2)c1 [Compound 65, N-(5-(3-(7-(2-fluorophenyl)-3H-imidazo[4,5-c]pyridin-2-yl)-1H-pyrazolo[4,3-b]pyridin-5-yl)pyridin-3-yl)isobutyramide]	> 10	1.9	28.2	0
> 10	> 10	CC(C)(C)CC(=O)Nc1cncc(-c2ccc3[nH]nc(-c4nc5c(-c6ccccc6F)cncc5[nH]4)c3n2)c1 [Compound 72, N-(5-(3-(7-(2-fluorophenyl)-3H-imidazo[4,5-c]pyridin-2-yl)-1H-pyrazolo[4,3-b]pyridin-5-yl)pyridin-3-yl)-3,3-dimethylbutanamide]	> 10	0	29.8	9.8
> 10	8.9	O=C(Nc1cncc(-c2ccc3[nH]nc(-c4nc5c(-c6ccccc6F)cncc5[nH]4)c3n2)c1)C1CCCC1 [Compound 78, N-(5-(3-(7-(2-Fluorophenyl)-3H-imidazo[4,5-c]pyridin-2-yl)-1H-pyrazolo[4,3-b]pyridin-5-yl)pyridin-3-yl)cyclopentanecarboxamide]	9.08	–	40.4	–
> 10	> 10	c1cncc(-c2ccc3[nH]nc(-c4nc5c(-c6cccnc6)cncc5[nH]4)c3n2)c1 [Compound 88, 5-(Pyridin-3-yl)-3-(7-(pyridin-3-yl)-3H-imidazo[4,5-c]pyridin-2-yl)-1H-pyrazolo[4,3-b]pyridine]	4.96	–	13.9	7.1
